Tested on: allo-reactive cytotoxic T cells in spleen of EL4-immunized BALB/c mice
Test: suppression of allo-reactive cytotoxic T cells induced by immunization of mouse with allogenic cells
Assay type: in vivo
Experimental: Male 5- to 7-week-old BALB/c mice (H-2^d) were immunized with leukemia cell EL4 derived from C57BL/6 mice (H-2^b) (10^7 cells/mouse, intraperitoneal administration), and the test substance was administered intraperitoneally 5 times at the doses of 0.001 to 3 mg/kg/day or orally at the doses of 0.3 to 10 mg/kg/day from the day of immunization. Nine to ten days after immunization, the spleen was resected from the mice to prepare a single cell suspension and the suspension was used as effector cell suspension. The ^51 Cr-release assay was carried out in the same way as in Experiment Example 3, using EL4 cells as the target cells to measure the cytotoxic activity.
The activity of allo-reactive cytotoxic T cell is indicated by lytic unit (LU) per spleen. One lytic unit (LU) is defined as the number of effector cells required to cause 25% lysis of 5×10^3 target cells. At the same time, the body weight of mouse and number of spleen cells were also determined.

[1] = 0.001 mg/kg/day ip × 5, Table 9C
[2] = 0.001 mg/kg/day po × 5, Table 9D
[3] = 0.003 mg/kg/day ip × 5, Table 9C
[4] = 0.003 mg/kg/day po × 5, Table 9D
[5] = 0.003 mg/kg/day po × 10, Table 9E
[6] = 0.01 mg/kg/day ip × 5, Table 9C
[7] = 0.01 mg/kg/day po × 5, Table 9D
[8] = 0.01 mg/kg/day po × 10, Table 9E
[9] = 0.03 mg/kg/day ip × 5, Table 9C
[10] = 0.03 mg/kg/day po × 5, Table 9D
[11] = 0.03 mg/kg/day po × 10, Table 9E
[12] = 0.1 mg/kg/day po × 10, Table 9E

CCCCCCCCCCCCC/C=C/C[C@@H](O)[C@H](O)[C@@](N)(CO)C(=O)O [Example 5]
Body weight 9 days after immunization [1]: 23.6 ± 1.1 g | Cytotoxic T cell activity [1]: 589 ± 415 LU/spleen | Cytotoxic T cell activity, suppression [1]: 49.7% | Number of spleen cells [1]: 1.8 ± 0.2 × 10^8 cell | Body weight 10 days after immunization [2]: 24.5 ± 1.7 g | Cytotoxic T cell activity [2]: 1929 ± 630 LU/spleen | Cytotoxic T cell activity, suppression [2]: 0% | Number of spleen cells [2]: 1.5 ± 0.2 × 10^8 | Body weight 9 days after immunization [3]: 22.8 ± 1.6 g | Cytotoxic T cell activity [3]: 473 ± 265 LU/spleen | Cytotoxic T cell activity, suppression [3]: 59.6% | Number of spleen cells [3]: 1.8 ± 0.2 × 10^8 cell | Body weight 10 days after immunization [4]: 24.6 ± 1.1 g | Cytotoxic T cell activity [4]: 1069 ± 400 LU/spleen | Cytotoxic T cell activity, suppression [4]: 30.2% | Number of spleen cells [4]: 1.6 ± 0.3 × 10^8 | Body weight 10 days after immunization [5]: 25.0 ± 0.7 g | Cytotoxic T cell activity [5]: 1936 ± 840 LU/spleen | Cytotoxic T cell activity, suppression [5]: 30.5% | Number of spleen cells [5]: 1.3 ± 0.3 × 10^8 | Body weight 9 days after immunization [6]: 24.4 ± 1.1 g | Cytotoxic T cell activity [6]: 443 ± 141 LU/spleen | Cytotoxic T cell activity, suppression [6]: 62.1% | Number of spleen cells [6]: 2.2 ± 0.3 × 10^8 cell | Body weight 10 days after immunization [7]: 25.8 ± 1.3 g | Cytotoxic T cell activity [7]: 709 ± 189 LU/spleen | Cytotoxic T cell activity, suppression [7]: 53.7% | Number of spleen cells [7]: 1.6 ± 0.3 × 10^8 | Body weight 10 days after immunization [8]: 25.2 ± 1.3 g | Cytotoxic T cell activity [8]: 996 ± 279 LU/spleen | Cytotoxic T cell activity, suppression [8]: 64.2% | Number of spleen cells [8]: 1.4 ± 0.2 × 10^8 | Body weight 9 days after immunization [9]: 24.0 ± 2.2 g | Cytotoxic T cell activity [9]: 352 ± 148 LU/spleen | Cytotoxic T cell activity, suppression [9]: 69.9% | Number of spleen cells [9]: 2.1 ± 0.5 × 10^8 cell | Body weight 10 days after immunization [10]: 25.0 ± 1.2 g | Cytotoxic T cell activity [10]: 684 ± 181 LU/spleen | Cytotoxic T cell activity, suppression [10]: 55.3% | Number of spleen cells [10]: 1.6 ± 0.3 × 10^8 | Body weight 10 days after immunization [11]: 24.2 ± 1.3 g | Cytotoxic T cell activity [11]: 799 ± 304 LU/spleen | Cytotoxic T cell activity, suppression [11]: 71.3% | Number of spleen cells [11]: 1.5 ± 0.3 × 10^8 | Body weight 9 days after immunization (0.1 mg/kg/day ip × 5, Table 9C): 25.4 ± 1.9 g | Cytotoxic T cell activity (0.1 mg/kg/day ip × 5, Table 9C): 158 ± 86 LU/spleen | Cytotoxic T cell activity, suppression (0.1 mg/kg/day ip × 5, Table 9C): 86.5% | Number of spleen cells (0.1 mg/kg/day ip × 5, Table 9C): 1.9 ± 0.3 × 10^8 cell | Body weight 10 days after immunization (0.1 mg/kg/day po × 5, Table 9D): 25.2 ± 0.4 g | Cytotoxic T cell activity (0.1 mg/kg/day po × 5, Table 9D): 638 ± 155 LU/spleen | Cytotoxic T cell activity, suppression (0.1 mg/kg/day po × 5, Table 9D): 58.3% | Number of spleen cells (0.1 mg/kg/day po × 5, Table 9D): 1.7 ± 0.4 × 10^8 | Body weight 10 days after immunization [12]: 25.0 ± 0.7 g | Cytotoxic T cell activity [12]: 731 ± 318 LU/spleen | Cytotoxic T cell activity, suppression [12]: 73.8% | Number of spleen cells [12]: 1.4 ± 0.4 × 10^8 | Body weight 9 days after immunization (0.3 mg/kg/day ip × 5, Table 9C): 26.0 ± 1.6 g | Cytotoxic T cell activity (0.3 mg/kg/day ip × 5, Table 9C): < 50 LU/spleen | Cytotoxic T cell activity, suppression (0.3 mg/kg/day ip × 5, Table 9C): > 95% | Number of spleen cells (0.3 mg/kg/day ip × 5, Table 9C): 1.9 ± 0.2 × 10^8 cell | Body weight 10 days after immunization (0.3 mg/kg/day po × 5, Table 9D): 25.4 ± 0.5 g | Cytotoxic T cell activity (0.3 mg/kg/day po × 5, Table 9D): 609 ± 197 LU/spleen | Cytotoxic T cell activity, suppression (0.3 mg/kg/day po × 5, Table 9D): 60.2%

Source: US5068247A, “2-aminopentanoic acid compounds and their use as immunosuppressants” (priority 1989, dated 1991)
